Laboratory results as given in PMC6158189, “A pharmacological probe identifies cystathionine β-synthase as a new negative regulator for ferroptosis” (Cell Death & Disease, 2018).
“Also recorded” adds a separate entry of the source.

Columns and labels:
hCBS Q222A = target: T1, hCBS Q222A (Homo sapiens, UniProt P35520, Q222A); experiment: purified hCBS mutant enzyme assay; type: biochemical
T1 construct: hCBS-413 (a C-terminal truncated hCBS 1–413); GST (N); made in house; host or cells: E. coli BL21
T1 sequence (P35520 1-413 Q222A): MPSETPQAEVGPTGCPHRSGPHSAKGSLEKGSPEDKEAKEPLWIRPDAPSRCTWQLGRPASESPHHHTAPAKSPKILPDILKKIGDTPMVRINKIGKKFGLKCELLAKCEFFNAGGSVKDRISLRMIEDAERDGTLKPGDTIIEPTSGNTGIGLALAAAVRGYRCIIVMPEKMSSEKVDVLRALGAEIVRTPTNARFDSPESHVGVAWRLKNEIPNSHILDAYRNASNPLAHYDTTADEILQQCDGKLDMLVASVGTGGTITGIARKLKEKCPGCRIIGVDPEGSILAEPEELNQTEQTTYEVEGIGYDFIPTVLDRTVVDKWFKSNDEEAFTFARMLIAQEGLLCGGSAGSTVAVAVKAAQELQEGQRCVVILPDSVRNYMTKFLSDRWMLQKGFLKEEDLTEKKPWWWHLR
Method: The IC50 values of CH004 for hCBS-413, hCBS-413 mutants, hCBS-FL, hCSE or hDDC were determined according to the standard assay conditions otherwise indicated.
Figure S6. […] HEK293T cells stably expressing CBS Q222A mutant (293T-CBS Q222A) were treated with 0 (DMSO control), 5 or 10 μM CH004 for 8 h before staining with the AzMC to detect H2S. The overlaid images of fluorescent and bright-field images are shown in the left panel, and the corresponding fluorescent (blue, H2S) and bright-field images are shown in the middle and right panels, respectively. Bars: 50 μm. [picture] Figure S7. The CH004-insensitive CBS Q222A mutant can be inhibited by HA. (A) HEK293T cells stably expressing CBS Q222A mutant (293T-CBS Q222A) were treated with 0 (DMSO, control), 5 or 10 μM of CH004, 1 mM or 2 mM of HA for 8 h before staining with the AzMC to detect H2S. The overlaid images of fluorescent and bright-field images are shown in the upper panel, and the corresponding fluorescent (blue, H2S) and bright-field images are shown in the middle and lower panels, respectively. Bars: 50 μm. (B) Quantification of the mean fluorescent density of H2S (blue). The intensity of blue light of the fluorescent images was quantified by ImageJ software, quantified and deduced the background signal in HEK293T-EV cells (Supplementary Figure S3B), normalized by the corresponding cell area and expressed as percentages of control (DMSO group, 100%). Means ± SDs (n=3). One-way ANOVA with Bonferroni post-tests was used for the analysis. *, p< 0.05; **, p< 0.01; n.s. no significance. The images are one representative from three independent experiments. (C) The inhibitory effect of 1 mM HA on purified CBS Q222A mutant. The assay was performed using 60 mM Cys and 1.2 μM CBS-413 Q222A mutant. The data were expressed as percentages of control (DMSO, 100%). Means ± SDs (n=4). [picture]
Table S2. Inhibitory effects of CH004 on hCBS WT and mutants.

hCBS = target: T2, hCBS (Homo sapiens, UniProt P35520); experiment: rapid dilution reversibility experiment; type: biochemical; details: 10 μM, 40 min pre-incubation with 20 μM hCBS, 200-fold dilution
T2 construct: GST (N); made in house; host or cells: E. coli BL21
T2 sequence (P35520 1-551): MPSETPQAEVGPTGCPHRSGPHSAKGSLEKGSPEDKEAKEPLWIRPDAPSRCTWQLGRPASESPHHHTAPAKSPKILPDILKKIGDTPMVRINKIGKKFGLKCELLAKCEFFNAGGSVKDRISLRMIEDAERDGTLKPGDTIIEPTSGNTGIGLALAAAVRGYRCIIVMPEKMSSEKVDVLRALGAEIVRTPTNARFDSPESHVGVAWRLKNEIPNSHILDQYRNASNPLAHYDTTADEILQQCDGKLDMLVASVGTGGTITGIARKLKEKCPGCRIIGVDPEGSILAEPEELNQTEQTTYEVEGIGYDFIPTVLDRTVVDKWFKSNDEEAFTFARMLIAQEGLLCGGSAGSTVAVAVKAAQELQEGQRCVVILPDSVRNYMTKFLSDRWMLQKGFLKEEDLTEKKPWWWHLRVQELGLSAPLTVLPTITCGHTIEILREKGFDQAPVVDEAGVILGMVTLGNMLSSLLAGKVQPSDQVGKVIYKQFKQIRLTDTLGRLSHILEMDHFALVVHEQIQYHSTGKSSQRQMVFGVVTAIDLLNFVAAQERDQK
Method: Figure S2. The mode of action of CH004 in inhibiting hCBS. […] After incubation with DMSO or CH004 at 10 μM for 40 min, hCBS (20 μM) was diluted 200-fold and the activity was measured according to the standard assay protocol (Materials and Methods). The data are presented as percentages of control (CTR; DMSO, 100%) and shown as means ± SDs (n = 5). The effects of 0.05 and 10 μM CH004 on hCBS (100 nM) without pre-incubation were defined as positive control (PC) and negative control (NC), respectively. (B) Inhibition of hCBS by CH004 as a function of PLP concentration with Cys (20 mM) together with Hcys (10 mM) as substrates (non-competitive inhibition constant αKi=15.2 ± 4.9 μM). (C) Inhibition of hCBS by CH004 as a function of Cys concentration in the presence of 100 μM PLP and the absence of Hcys (mixed inhibition constant αKi=26.4 ± 8 μM). (D) Inhibition of hCBS by CH004 as a function of Hcys concentration in the presence of 20 mM Cys and 100 μM PLP (mixed inhibition constant αKi’=7.2 ± 1.6 μM). Each point in the Lineweaver-Burk plots represents the means of triplicate. The αKi or αKi’ values were calculated by using the non-linear fitting method for enzyme kinetics in GraphPad Prism 5. (E) Surface Plasmon Resonance assays analysis of the binding of CH004 to hCBS. […] Dissociation constants for CH004 (KD) were calculated by using Biacore evaluation software (Materials and Methods).

SMILES: Cn1nc(Cc2ccccc2)nc2c(=O)n(C)c(=O)nc1-2 [CH004, 3-benzyl-1,6-dimethylpyrimido[5,4-e][1,2,4]triazine-5,7(1H,6H)-dione]
- IC50 (hCBS Q222A): 27.6 ± 0.9 µM
- IC50 fold to WT, Q222A (hCBS Q222A): 23
- reversibility of binding to hCBS (hCBS): binds reversibly; also recorded: reversibly binds
